Laboratory results: US11351221B2, “SMAC mimetic” (Medivir AB, priority 2009, dated 2022)
pIC50: −log10 of the molar value.

Key:
[1] = test system: SKOV-3 ovarian tumor cell; experiment: SKOV-3 cytotoxicity (MTT assay); format: cell-based; details: Homo sapiens, SK-OV-3 cells, 72 hrs, concentration giving 50% cell survival
Method: SKOV-3 ovarian tumor cell cytotoxicity data were generated substantially as follows. The MTT (3-(4,5-Dimethylthiazol-2-yl)-2,5-diphenyltetrazolium bromide) assay is an example of an assay that has been used for measuring cell growth as previously described (Hansen, M. B., Nielsen, S. E., and Berg, K. (1989) J. Immunol Methods 119, 203-210) and incorporated herein by reference in its entirety. Briefly, SK-OV-3 cells were seeded in 96-well plates in McCoy's medium containing 10% fetal bovine serum albumin (5,000 per well) and incubated overnight at 37° C. The next day, test compounds were added at various concentrations (0.003-10 μM) and the plates were incubated at 37° C. for an additional 72 hrs. This incubation time was optimal for measuring inhibitory effects of different analogs. Fifty microliters of 5 mg/mL MTT reagent to each well was added and the plates were incubated at 37° C. for 3 hours. At the end of the incubation period, 50 microliters of DMSO was added to each well to dissolve cells and the optical density (OD) of the wells was measured using a microplate reader (Victor^2 1420, Wallac, Finland) at 535 nm. Cell survival (CS) was calculated by the following equation: CS=(OD treated well/mean OD control wells)×100%
The CC50, defined as the drug concentration that results in 50% CS, was derived by calculating the point where the dose-response curve crosses the 50% CS point using GraphPad Prism.

cIAP-2 = target: T1, cIAP-2 (Homo sapiens, UniProt Q13489); experiment: cIAP degradation assay (GFP-cIAP-2); format: cell-based; details: A375Gc2 cells, 2 h treatment, 50% of GFP signal inhibited (FACS); read-out: GFP-cIAP-2 IC50
T1 construct: expressed in transfected cells; host or cells: A375 (A375Gc2)
Method: (§1) The concentration inducing degradation of cIAP-1 and cIAP-2 by 50% (IC50) for various compounds was determined by monitoring the disappearance of Green Fluorescent Protein (GFP)-signal in A375 cells. Briefly, A375 cell lines expressing GFP-tagged cIAP-1 and cIAP-2 were generated by transfecting HA2xEGFP-pcDNA3 vector containing either cIAP-1 (A375Gc1) or cIAP-2 (A375Gc2) coding region. 2×10^4 of A375Gc1 or A375Gc2 cells were grown in 96-well plate and treated with various concentrations of test compounds for 2 h. After incubation, cells were collected by trypsinization and suspended in 150 μl of DMEM-10% FBS. A total of 10^4 cells were analyzed using a FACScan (Becton Dickinson). GFP fluorescence was monitored by using an excitation filter at 488 nm and emission was measured with a 530 nm filter. IC50 is defined as the concentration of drug at which 50% of GFP signal was inhibited.

cIAP-1 = target: T2, cIAP-1 (Homo sapiens, UniProt Q13490); experiment: cIAP degradation assay (GFP-cIAP-1); format: cell-based; details: for DC50: A375Gc1 cells, 2 h treatment, 50% of GFP signal inhibited (FACS), read-out: GFP-cIAP-1 IC50; for IC50 Ratio cIAP-2/cIAP-1: ratio of GFP-cIAP-2 to GFP-cIAP-1 degradation IC50
T2 construct: expressed in transfected cells; host or cells: A375 (A375Gc1)
Method: as §1, with “Briefly,” for “The concentration inducing degradation of cIAP-1 and cIAP-2 by 50% (IC50) for various compounds was determined by monitoring the disappearance of Green Fluorescent Protein (GFP)-signal in A375 cells. Briefly,”, “filter.” for “filter. IC50 is defined as the concentration of drug at which 50% of GFP signal was inhibited.”

XIAP = target: T3, XIAP (Homo sapiens, UniProt P98170); experiment: Caspase-3 derepression assay; format: biochemical; details: MDA-MB-231 hypotonic lysate activated with cytochrome c and dATP; zDEVD-R110(2) substrate
T3 construct: endogenous in cells; host or cells: MDA-MB-231 (ATCC), soluble hypotonic lysate
Method: Cell pellet was washed one time by resuspending in 5 mL hypotonic lysis buffer (20 mM HEPES, pH7.5, 10 mM KCl, 1.5 mM MgCl2, 1.0 mM EDTA, 1.0 mM DTT) and recollected by centrifugation. Pellet was next resuspended in 1 volume of hypotonic lysis buffer supplemented with a complete protease inhibitor tablet (Roche) and allowed to swell on ice for 30 minutes. Cells were disrupted by approximately 50 passages through a 27 gauge needle. Lysis was monitored by light microscopy. Lysate was centrifuged at 12000×g for 10 minutes at 4° C. to remove membrane fraction, unlysed cells and debris. The soluble fraction was collected for protein concentration determination and subsequent assay analysis.
The hypotonic lysate (25 μg protein), 50 μg/mL cytochrome c and 10 mM dATP were combined in a microcentrifuge tube to a final volume of 9 μl in hypotonic lysis buffer followed by addition of test compound and incubated for 30 minutes at room temp. Following incubation 50 μl of hypotonic lysis buffer containing 5 μM of pro-fluorescent rhodamine-110(2) based caspase-3 substrate zDEVD-R110(2) was added and fluorescence intensity was monitored over time. Activation of the lysate by addition of cytochrome c and dATP results in apoptosome formation and subsequent activation of caspases-9 and -3.

[2] = format: in vivo; details: for Mortality: 3 mg/Kg, QDx4 i.v. bolus; for Bone marrow hypocellularity of the erythroid series (anatomic pathology) / Hypercellularity of the myeloid series (anatomic pathology) / Hypertrophy and hyperplasia of megakaryocytes (anatomic pathology) / Type 2 pneumocyte hypertrophy/hyperplasia in the lungs (anatomic pathology) / Clinical signs: 1 mg/kg/day
Excerpt: Body weight loss (BWL), mortality and additional toxicity data were generated substantially as follows. […] Body weights were taken on day 4 and are shown as percent change from day 1.

[3] = test system: MDA-MB-231 human breast tumor cells; experiment: MDA-MB-231 xenograft tumor growth delay; format: in vivo, female nude mice
Method: MDA-MB-231 xenograft data were generated substantially as follows. MDA-MB-231 human breast tumor cells were injected into the mammary fat pad of female nude mice and dosing initiated twelve days later at an average tumor volume of approximately 148 mm^3. No tumor burden was associated with this model based on lack of weight loss or animal morbidity in control groups. Mice were injected subcutaneously into the mammary fat pad with 1×10^7 cells suspended in 200 μl of a 1:1 HBSS: Matrigel solution; injected cells were within nine passages of the original lot. Pre-study tumor volumes were recorded beginning approximately one week prior to the estimated start date. When tumors reached approximately 150 mm^3 animals are matched by tumor volume into treatment and control groups and dosing initiated (Day 0); mice are tagged and followed individually throughout the experiment. Animals were dosed by weight (0.01 mL per gram; 10 ml/Kg).
Beginning on Day 0, animals were observed daily and weighed twice weekly using a digital scale (Ohaus SP601); data including individual and mean gram weights (Mean We±SD), mean percent weight change versus Day 0 (% vD0) and mean percent weight change versus prior measurement (% vD−x) were recorded for each group and plotted at study completion.
Beginning on Day 0, tumor dimensions were measured twice weekly by digital caliper (Fowler Ultra-Cal IV) and data including individual and mean estimated tumor volumes (Mean TV±SEM) recorded for each group; tumor volume was calculated using the formula: TV=width^2×length×0.52. Individual mice reaching the designated study endpoint (an estimated tumor volume of approximately 1 cm^3) were assigned a time to endpoint (TTE) value corresponding to that day; the tumor growth delay (TGD) study was concluded once all mice reach the study endpoint or sixty days following study initiation. At study completion, TGD and % TGD are calculated using the median TTE (MTTE) value for each treatment (T) group versus control (C) by the formulas: TGD(days)=T−C and % TGD=T−C/C×100, wherein T−C is the difference between MTTE-Treatment Group and MTTE-Control. Tumored animals not reaching the designated volume endpoint by study completion are considered long-term survivors (LTS) and assigned a TTE value corresponding to the final study day; tumor-free animals are not included in TGD calculations. A Log-rank test is used to determine statistically significant differences in overall survival experience between each treated group compared to control. Individual mice reporting a tumor volume ≤50% of the Day 0 measurement for two consecutive measurements over a seven day period were considered partial responders (PR). If the PR persisted until study completion, percent tumor regression (% TR) was determined using the formula: % TR=1−Tf/Ti×100; a mean value was calculated if multiple PR mice occurred in one group. Individual mice lacking palpable tumors (<4×4 mm^2 for two consecutive measurements over a seven day period) were classified as complete responders (CR); a CR that persisted until study completion was considered a tumor-free survivor (TFS); TFS animals are excluded from TGD calculations and statistical analysis. Statistical differences in MTTE values between control and treatment groups are compared using a Log Rank test.

T1 sequence (Q13489 whole entry, species assumed): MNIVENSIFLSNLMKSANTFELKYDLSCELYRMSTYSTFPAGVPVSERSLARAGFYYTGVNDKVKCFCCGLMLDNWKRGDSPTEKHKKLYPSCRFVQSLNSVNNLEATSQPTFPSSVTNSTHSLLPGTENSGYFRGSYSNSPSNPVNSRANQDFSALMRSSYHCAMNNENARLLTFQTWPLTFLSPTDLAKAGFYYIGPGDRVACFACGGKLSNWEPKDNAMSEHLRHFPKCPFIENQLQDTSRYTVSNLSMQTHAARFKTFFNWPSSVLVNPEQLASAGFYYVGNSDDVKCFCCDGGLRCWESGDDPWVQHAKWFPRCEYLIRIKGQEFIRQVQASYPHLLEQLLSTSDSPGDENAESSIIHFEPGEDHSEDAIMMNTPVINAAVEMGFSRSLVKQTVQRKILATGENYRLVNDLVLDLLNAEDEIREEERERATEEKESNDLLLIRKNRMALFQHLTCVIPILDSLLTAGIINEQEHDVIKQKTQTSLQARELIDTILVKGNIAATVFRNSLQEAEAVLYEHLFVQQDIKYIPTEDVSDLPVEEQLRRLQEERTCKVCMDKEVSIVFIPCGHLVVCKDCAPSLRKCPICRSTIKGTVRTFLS
T2 sequence (Q13490 whole entry, species assumed): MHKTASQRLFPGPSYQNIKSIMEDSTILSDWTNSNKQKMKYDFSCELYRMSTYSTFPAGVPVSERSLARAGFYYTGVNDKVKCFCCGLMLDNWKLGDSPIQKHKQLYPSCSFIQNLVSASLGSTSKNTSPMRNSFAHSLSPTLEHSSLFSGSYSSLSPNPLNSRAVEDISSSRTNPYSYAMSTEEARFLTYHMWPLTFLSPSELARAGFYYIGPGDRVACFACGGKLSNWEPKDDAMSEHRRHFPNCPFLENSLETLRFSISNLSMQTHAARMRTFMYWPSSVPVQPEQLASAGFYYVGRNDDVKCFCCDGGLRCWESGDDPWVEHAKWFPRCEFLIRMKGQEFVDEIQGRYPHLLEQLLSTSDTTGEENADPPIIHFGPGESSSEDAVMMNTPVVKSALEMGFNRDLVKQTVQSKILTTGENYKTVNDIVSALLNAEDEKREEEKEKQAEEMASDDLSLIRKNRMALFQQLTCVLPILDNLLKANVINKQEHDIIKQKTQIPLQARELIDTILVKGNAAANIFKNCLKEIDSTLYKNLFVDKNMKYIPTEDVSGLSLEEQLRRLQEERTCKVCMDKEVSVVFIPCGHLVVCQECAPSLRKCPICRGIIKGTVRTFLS
T3 sequence (P98170 whole entry): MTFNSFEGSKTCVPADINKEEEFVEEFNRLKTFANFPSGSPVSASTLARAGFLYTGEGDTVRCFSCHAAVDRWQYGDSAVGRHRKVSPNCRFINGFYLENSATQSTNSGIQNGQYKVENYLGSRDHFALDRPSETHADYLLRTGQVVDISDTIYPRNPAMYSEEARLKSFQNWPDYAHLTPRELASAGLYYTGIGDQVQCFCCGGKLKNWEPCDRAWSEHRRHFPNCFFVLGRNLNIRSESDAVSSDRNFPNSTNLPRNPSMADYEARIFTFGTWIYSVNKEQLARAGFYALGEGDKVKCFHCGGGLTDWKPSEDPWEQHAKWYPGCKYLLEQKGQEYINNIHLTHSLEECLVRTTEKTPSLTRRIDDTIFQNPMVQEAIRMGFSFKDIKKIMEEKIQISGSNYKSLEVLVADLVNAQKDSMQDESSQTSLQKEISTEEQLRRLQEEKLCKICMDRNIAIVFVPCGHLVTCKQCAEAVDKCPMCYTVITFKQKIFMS

Row | SMILES | CC50 [1] [nM] | DC50 (cIAP-2) [nM] | DC50 (cIAP-1) [nM] | IC50 Ratio cIAP-2/cIAP-1 (cIAP-1) | pIC50 (XIAP) | Mortality ([2]; rat) | Bone marrow hypocellularity of the erythroid series (anatomic pathology) ([2]; rat, in vivo) | Hypercellularity of the myeloid series (anatomic pathology) ([2]; rat, in vivo) | Hypertrophy and hyperplasia of megakaryocytes (anatomic pathology) ([2]; rat, in vivo) | Type 2 pneumocyte hypertrophy/hyperplasia in the lungs (anatomic pathology) ([2]; rat, in vivo) | Clinical signs ([2]; rat, in vivo, iv) | further results
1 | CN[C@@H](C)C(=O)N[C@H](C(=O)N1C[C@@H](O)C[C@H]1Cc1c(-c2[nH]c3cc(F)ccc3c2C[C@@H]2C[C@H](O)CN2C(=O)[C@@H](NC(=O)[C@H](C)NC)C(C)C)[nH]c2cc(F)ccc12)C(C)C [Compound 2] | 0.5 | 7 | 4 | 1.8 | 7.87 |  |  |  |  |  |  | 
2 | CN[C@@H](C)C(=O)N[C@H](C(=O)N1C[C@@H](O)C[C@H]1Cc1c(-c2[nH]c3cc(F)ccc3c2C[C@@H]2C[C@H](O)CN2C(=O)[C@@H](NC(=O)[C@H](C)NC)[C@@H](C)O)[nH]c2cc(F)ccc12)[C@@H](C)O [Compound 3] | 13 | 674 | 328 | 2.1 | 9.70 |  |  |  |  |  |  | 
3 | CN[C@@H](C)C(=O)N[C@H](C(=O)N1C[C@@H](O)C[C@H]1Cc1c(-c2[nH]c3cc(F)ccc3c2C[C@@H]2C[C@H](O)CN2C(=O)[C@@H](NC(=O)[C@H](C)NC)[C@H](C)O)[nH]c2cc(F)ccc12)[C@H](C)O [Compound 4] | 2 | 604 | 464 | 1.3 | 9.46 | caused the animals to die | marked to severe | mild to moderate | mild to moderate | mild to moderate | lethargy, increased/irregular respiration and increased heart rate | 
4 | CN[C@@H](C)C(=O)N[C@H](C(=O)N1C[C@@H](O)C[C@H]1Cc1c(-c2[nH]c3cc(F)ccc3c2C[C@@H]2C[C@H](O)CN2C(=O)[C@@H](NC(=O)[C@H](C)NC)[C@@H](C)OC)[nH]c2cc(F)ccc12)[C@@H](C)OC [Compound 5] | 0.13 | 37 | 10 | 3.7 | 9.44 | caused the animals to die | marked to severe | mild to moderate | mild to moderate | mild to moderate | lethargy, increased/irregular respiration and increased heart rate | Long-term survivors ([3]; 15 mg/Kg i.p., q3dx5): 3/10; Partial tumor regression ([3]; 15 mg/Kg i.p., q3dx5): five; T−C value (tumor growth delay) ([3]; 15 mg/Kg i.p., q3dx5): 21 days; Weight loss compared to mice dosed with Compound 15 at 20 mg/Kg ([3]; nude mice, 15 mg/Kg i.p., q3dx5): greater; Additional clinical observations ([2]; rat, in vivo, 1 mg/kg): dehydration, ungroomed appearance, chromorhinorrhea, alopecia (head), and excessive scratching
5 | CC[C@H](NC(=O)[C@H](C)NC)C(=O)N1C[C@@H](O)C[C@H]1Cc1c(-c2[nH]c3cc(F)ccc3c2C[C@@H]2C[C@H](O)CN2C(=O)[C@H](CC)NC(=O)[C@H](C)NC)[nH]c2cc(F)ccc12 [Compound 15, N-{1S-[2R-(6,6′-Difluoro-3′-{4S-hydroxy-1-[2S-(2S-methylamino-propionylamino)-butyryl]-pyrrolidin-2R-ylmethyl}-1H,1′H-[2,2′]biindolyl-3-ylmethyl)-4S-hydroxy-pyrrolidine-1-carbonyl]-propyl}-2S-methylamino-propionamide] | 0.14 | 174 |  |  |  |  |  |  |  |  |  | Long-term survivors ([3]; 20 mg/Kg i.p., q3dx5): 6/10; Partial tumor regression ([3]; 20 mg/Kg i.p., q3dx5): three; T−C value (tumor growth delay) ([3]; 20 mg/Kg i.p., q3dx5): 22 days; Long-term survivors ([3]; 40 mg/Kg i.p., q3dx5): 9/10; Partial tumor regression ([3]; 40 mg/Kg i.p., q3dx5): three; T−C value (tumor growth delay) ([3]; 40 mg/Kg i.p., q3dx5): 22 days; Long-term survivors ([3]; 60 mg/Kg i.p., q3dx5): 8/10; Partial tumor regression ([3]; 60 mg/Kg i.p., q3dx5): seven; T−C value (tumor growth delay) ([3]; 60 mg/Kg i.p., q3dx5): 22 days; Minimal effective dose ([3]; MDA-MB-231 xenograft model, subsequent studies): less than 1 mg/Kg; Tolerability in the rat as compared to Compounds 4 and 5, dose per dose ([2]; Sprague-Dawley, in vivo, iv, 4 days): approximately 5 fold
